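The concentration for 50% growth inhibition is given as GI50. At the TGI there is no net growth.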
Key:
Assay in all cases: NCI tumour cell line growth inhibition, 384-well format
[1] = tested on: T-47D breast
[2] = tested on: HCT-15 colon
[3] = tested on: SF-268 CNS
[4] = tested on: MCF7 breast
[5] = tested on: HOP-92 NSCLC
[6] = tested on: NCI-H322M lung
[7] = tested on: HCC-2998 colon
[8] = tested on: NCI-H460 NSCLC
[9] = tested on: MDA-MB-468 breast
[10] = tested on: HL-60(TB) leukemia
[11] = tested on: K-562 leukemia
[12] = tested on: SK-OV-3 ovarian
[13] = tested on: RXF 393 renal
[14] = tested on: NCI-H23 lung
[15] = tested on: MDA-MB-231 breast
[16] = tested on: M14 melanoma
[17] = tested on: KM12 colon
[18] = tested on: 786-0 renal
[19] = tested on: ACHN renal
[20] = tested on: MOLT-4 leukemia
[21] = tested on: SR leukemia
[22] = tested on: CCRF-CEM leukemia
[23] = tested on: NCI/ADR-RES ovarian
[24] = tested on: MDA-MB-435 melanoma
[25] = tested on: SNB-75 CNS
[26] = tested on: SF-539 CNS
[27] = tested on: SN12C renal
[28] = tested on: RPMI-8226 leukemia
[29] = tested on: HCT-116 colon
[30] = tested on: COLO 205 colon
[31] = tested on: HT29 colon
[32] = tested on: SNB-19 CNS
[33] = tested on: DU-145 prostate
[34] = tested on: TK-10 renal
[35] = tested on: OVCAR-4 ovarian
[36] = tested on: EKVX NSCLC
[37] = tested on: LOX IMVI melanoma
[38] = tested on: PC-3 prostate
[39] = tested on: OVCAR-5 ovarian
[40] = tested on: SF-295 CNS
[41] = tested on: BT-549 breast
[42] = tested on: SW-620 colon
[43] = tested on: U251 glioblastoma
[44] = tested on: SK-MEL-28 melanoma
[45] = tested on: HOP-62 NSCLC
[46] = tested on: HS 578T breast
[47] = tested on: A549 NSCLC
[48] = tested on: OVCAR-3 ovarian
[49] = tested on: UACC-257 melanoma
[50] = tested on: IGROV1 ovarian
[51] = tested on: NCI-H226 lung
[52] = tested on: UACC-62 melanoma
[53] = tested on: NCI-H522 lung
[54] = tested on: MALME-3M melanoma
[55] = tested on: SK-MEL-2 melanoma
[56] = tested on: CAKI-1 renal
[57] = tested on: A498 renal
[58] = tested on: SK-MEL-5 melanoma

Q: Which GI50 [1] does the source give for `CN1CC[C@]2(c3cccc(O)c3)CC(=O)/C(=C/c3ccccc3)[C@H]1C2` here?
A: 11.8 µM

Q: What about the TGI [1] of the same molecule?
A: 24.5 µM

Q: And the GI50 [2]?
A: 3.21 µM

Q: What about the TGI [2] of the same molecule?
A: 13.1 µM

Q: What about the GI50 [3] of the same molecule?
A: 11.9 µM

Q: And the TGI [3]?
A: 24.3 µM

Q: What about the GI50 [4] of the same molecule?
A: 11.5 µM

Q: And the TGI [4]?
A: 23.9 µM

Q: What about the GI50 [5] of the same molecule?
A: 11.6 µM

Q: And the TGI [5]?
A: 24 µM

Q: And the GI50 [6]?
A: 5.86 µM

Q: And the TGI [6]?
A: 18.6 µM

Q: What about the GI50 [7] of the same molecule?
A: 1.77 µM

Q: What about the TGI [7] of the same molecule?
A: 14.7 µM

Q: What about the GI50 [8] of the same molecule?
A: 4.05 µM

Q: What about the TGI [8] of the same molecule?
A: 15.2 µM

Q: What about the GI50 [9] of the same molecule?
A: 13.4 µM

Q: And the TGI [9]?
A: 26.4 µM

Q: And the GI50 [10]?
A: 2.06 µM

Q: And the TGI [10]?
A: 4.13 µM

Q: What about the GI50 [11] of the same molecule?
A: 4.3 µM

Q: And the TGI [11]?
A: 18 µM

Q: What about the GI50 [12] of the same molecule?
A: 5.01 µM

Q: And the TGI [12]?
A: 16.6 µM

Q: And the GI50 [13]?
A: 3.86 µM

Q: And the TGI [13]?
A: 14.5 µM

Q: What about the GI50 [14] of the same molecule?
A: 12 µM

Q: What about the TGI [14] of the same molecule?
A: 26.4 µM

Q: What about the GI50 [15] of the same molecule?
A: 9.42 µM

Q: What about the TGI [15] of the same molecule?
A: 22.1 µM

Q: And the GI50 [16]?
A: 12.7 µM

Q: What about the TGI [16] of the same molecule?
A: 25.5 µM

Q: And the GI50 [17]?
A: 4.77 µM

Q: What about the TGI [17] of the same molecule?
A: 16.4 µM

Q: What about the GI50 [18] of the same molecule?
A: 13.6 µM

Q: And the TGI [18]?
A: 26.7 µM

Q: And the GI50 [19]?
A: 12.8 µM

Q: What about the TGI [19] of the same molecule?
A: 25.7 µM

Q: And the GI50 [20]?
A: 6.77 µM

Q: What about the TGI [20] of the same molecule?
A: 19.8 µM

Q: And the GI50 [21]?
A: 1.16 µM

Q: And the TGI [21]?
A: 3.15 µM

Q: And the GI50 [22]?
A: 11.8 µM

Q: And the TGI [22]?
A: 24.3 µM

Q: And the GI50 [23]?
A: 11.1 µM

Q: And the TGI [23]?
A: 27.8 µM

Q: And the GI50 [24]?
A: 4.41 µM

Q: What about the TGI [24] of the same molecule?
A: 16.2 µM

Q: What about the GI50 [25] of the same molecule?
A: 6.43 µM

Q: What about the TGI [25] of the same molecule?
A: 18.8 µM

Q: What about the GI50 [26] of the same molecule?
A: 6.7 µM

Q: And the TGI [26]?
A: 19.6 µM

Q: What about the GI50 [27] of the same molecule?
A: 13.6 µM

Q: And the TGI [27]?
A: 26.9 µM

Q: And the GI50 [28]?
A: 1.86 µM

Q: What about the TGI [28] of the same molecule?
A: 3.77 µM

Q: And the GI50 [29]?
A: 8.49 µM

Q: And the TGI [29]?
A: 20.9 µM

Q: What about the GI50 [30] of the same molecule?
A: 15.4 µM

Q: What about the TGI [30] of the same molecule?
A: 28.9 µM

Q: And the GI50 [31]?
A: 13.4 µM

Q: What about the TGI [31] of the same molecule?
A: 26.8 µM

Q: And the GI50 [32]?
A: 15 µM

Q: What about the TGI [32] of the same molecule?
A: 29 µM

Q: What about the GI50 [33] of the same molecule?
A: 14.2 µM

Q: What about the TGI [33] of the same molecule?
A: 28.1 µM

Q: What about the GI50 [34] of the same molecule?
A: 14.9 µM

Q: What about the TGI [34] of the same molecule?
A: 28.3 µM

Q: What about the GI50 [35] of the same molecule?
A: 14.8 µM

Q: And the TGI [35]?
A: 28.2 µM

Q: And the GI50 [36]?
A: 6.2 µM

Q: What about the TGI [36] of the same molecule?
A: 20.3 µM

Q: And the GI50 [37]?
A: 12 µM

Q: What about the TGI [37] of the same molecule?
A: 24.5 µM

Q: And the GI50 [38]?
A: 10 µM

Q: And the TGI [38]?
A: 21.9 µM

Q: And the GI50 [39]?
A: 17.6 µM

Q: What about the TGI [39] of the same molecule?
A: 31.8 µM

Q: And the GI50 [40]?
A: 16.2 µM

Q: And the TGI [40]?
A: 30.1 µM

Q: And the GI50 [41]?
A: 5.7 µM

Q: And the TGI [41]?
A: 17.7 µM

Q: What about the GI50 [42] of the same molecule?
A: 5.35 µM

Q: What about the TGI [42] of the same molecule?
A: 16.5 µM

Q: And the GI50 [43]?
A: 4.11 µM

Q: And the TGI [43]?
A: 15.5 µM

Q: What about the GI50 [44] of the same molecule?
A: 10.7 µM

Q: What about the TGI [44] of the same molecule?
A: 22.8 µM

Q: And the GI50 [45]?
A: 17 µM

Q: What about the TGI [45] of the same molecule?
A: 31.3 µM

Q: What about the GI50 [46] of the same molecule?
A: 3.7 µM

Q: What about the TGI [46] of the same molecule?
A: 14.5 µM

Q: What about the GI50 [47] of the same molecule?
A: 4.95 µM

Q: What about the TGI [47] of the same molecule?
A: 16.5 µM

Q: What about the GI50 [48] of the same molecule?
A: 4.8 µM

Q: What about the TGI [48] of the same molecule?
A: 15.7 µM

Q: What about the GI50 [49] of the same molecule?
A: 3.9 µM

Q: What about the TGI [49] of the same molecule?
A: 13.7 µM

Q: What about the GI50 [50] of the same molecule?
A: 14.5 µM

Q: What about the TGI [50] of the same molecule?
A: 28 µM

Q: And the GI50 [51]?
A: 18.1 µM

Q: What about the TGI [51] of the same molecule?
A: 32.1 µM

Q: What about the GI50 [52] of the same molecule?
A: 10.5 µM

Q: What about the TGI [52] of the same molecule?
A: 22.5 µM

Q: What about the GI50 [53] of the same molecule?
A: 0.414 µM

Q: And the TGI [53]?
A: 2.38 µM

Q: And the GI50 [54]?
A: 6.65 µM

Q: What about the TGI [54] of the same molecule?
A: 18.9 µM

Q: What about the GI50 [55] of the same molecule?
A: 21.1 µM

Q: What about the TGI [55] of the same molecule?
A: 35.6 µM

Q: And the GI50 [56]?
A: 8.77 µM

Q: And the TGI [56]?
A: 21.1 µM

Q: And the GI50 [57]?
A: 16.5 µM

Q: And the TGI [57]?
A: 30.3 µM

Q: And the GI50 [58]?
A: 4.91 µM

Q: And the TGI [58]?
A: 15.7 µM
